# Values quoted from earlier work in patent US20090304692A1, “TRIAZINE COMPOUNDS AS PI3 KINASE AND MTOR INHIBITORS” (Wyeth, priority 2008, published 2009).
# Key:
# [1] = test system: acute lymphoblastic leukemia xenograft; conditions: NOS/SCID xenograft mouse model of acute lymphoblastic leukemia; cited from earlier work
# [2] = test system: human tumor xenograft models; conditions: chronic oral administration, 400 mg/kg, mouse; A549, PC-3, WiDr; cited from earlier work
# mTOR enzymes = mTOR enzymes (Homo sapiens, UniProt P42345); conditions: read-out: mTOR enzymes IC50; cited from earlier work
Compound,activity in xenograft mouse model [1],growth of human xenograft tumors [2],IC50 (mTOR enzymes) [µM]
CO[C@H]1C[C@@H]2CC[C@@H](C)[C@@](O)(O2)C(=O)C(=O)N2CCCC[C@H]2C(=O)O[C@H]([C@H](C)C[C@@H]2CC[C@@H](OC(=O)C(C)(CO)CO)[C@H](OC)C2)CC(=O)[C@H](C)/C=C(\C)[C@@H](O)[C@@H](OC)C(=O)[C@H](C)C[C@H](C)/C=C/C=C/C=C/1C [Torisel],active,,
"FC(F)c1nc2ccccc2n1-c1nc(N2CCOCC2)nc(N2CCOCC2)n1 [ZSTK474, 2-(2-difluoromethylbenzoimidazol-1-yl)-4,6-dimorpholino-1,3,5-triazine]",,completely inhibited growth,> 10
